Measurements published in PubChem BioAssay (NCI).
Several values for one entry are separate records, joined by “and”; a condition that tells them apart may be missing. Equal values may be shown once.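 Each compound was tested at five concentrations against cells in 96-well plates for 48 hours. GI50 = concentration required for 50% inhibition of growth. The concentration for full growth arrest is given as TGI.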

How the values were obtained:
Test in all cases: DTP human tumour cell line panel, 48 h
[1] = tested on: CAKI-1 renal
[2] = tested on: SNB-19 CNS
[3] = tested on: MDA-MB-435
[4] = tested on: SN12C renal
[5] = tested on: CCRF-CEM leukemia
[6] = tested on: RXF 393 renal
[7] = tested on: OVCAR-3 ovarian
[8] = tested on: HOP-62 NSCLC
[9] = tested on: HCT-15 colon
[10] = tested on: HT29 colon

SMILES | GI50 [1] [µM] | TGI [1] | GI50 [2] [µM] | TGI [2] | GI50 [3] [µM] | TGI [3] [µM] | GI50 [4] [µM] | TGI [4] | GI50 [5] [µM] | TGI [5] | GI50 [6] [µM] | TGI [6] | GI50 [7] [µM] | TGI [7] | GI50 [8] [µM] | TGI [8] | GI50 [9] [µM] | TGI [9] | GI50 [10] [µM] | TGI [10]
c1ccc(-c2oc(-c3ccccc3)c(CN3CCCCC3)c2CN2CCCCC2)cc1 | 4.81 | 18.7 µM | 2.64 | 8.72 µM | 2.73 | 10.6 | 2.84 | 12.4 µM | 2.54 | 9.97 µM | 1.85 | 5.74 µM | 2.92 | 10.5 µM | 4.69 | 21.8 µM | 1.79 | 10.3 µM | 1.27 | 13.3 µM
COc1cc(/C=C/C(=O)c2cccc(-n3cc(-c4cc(OC)c(OC)c(OC)c4)[nH]c3=O)c2)cc(OC)c1OC | 2.89 | 9.91 µM | 4.07 | 15.8 µM | 2.11 | 9.92 | 2.75 | 18.2 µM | 0.275 | > 100 µM | 1.62 | 3.41 µM | 1.48 | 4.32 µM | 3.08 | 8.74 µM | 1.89 | 7.51 µM | 1.7 | 7.03 µM
O=C1NC(=S)S/C1=C\c1cn(-c2ccccc2)nc1-c1ccccc1 | 7.14 | 51.8 µM | 6.14 | > 100 µM | 4.91 | 36.6 | 9.93 | > 100 µM | 2.5 | 69.8 µM | 22.4 | 65.2 µM | 11.6 | 29 µM | 22.7 | 68.4 µM | 4.71 | 23.2 µM | 12.5 | 38.3 µM
O=C(O)C1=C/C(=C(/c2ccccc2)c2cc(C(=O)O)c(O)c3ccccc23)c2ccccc2C1=O | – | > 100 µM | – | > 100 µM | – | > 100 | – | > 100 µM | – | > 100 µM | – | > 100 µM | – | > 100 µM | – | > 100 µM | – | > 100 µM | – | > 100 µM
COc1ccc2c(c1)OC(N)=C(C#N)C2c1cc(OC)c(OC)c(OC)c1 (configuration not stated) | 0.107 | > 100 µM | 0.0864 | > 100 µM | 0.0189 | – | 0.0494 | > 100 µM | 0.0337 | > 100 µM | 0.0344 | 73.6 µM | 0.0253 | 0.0648 µM | 0.0548 | 33.2 µM | 0.034 | > 100 µM | 0.0328 | 0.172 µM
O=C1NC(=NCCc2ccc(F)cc2)S/C1=C\c1ccc2ncccc2c1 | > 25 | > 25 µM | > 25 | > 25 µM | > 25 | > 25 | > 25 | > 25 µM | > 25 | > 25 µM | > 25 | > 25 µM | > 25 | > 25 µM | > 25 | > 25 µM | > 25 | > 25 µM | > 25 | > 25 µM
O=C1CC(c2c[nH]c3ccc(F)cc23)C(=O)N1 (configuration not stated) | > 100 | > 100 µM | > 100 | > 100 µM | > 100 | > 100 | > 100 | > 100 µM | > 100 | > 100 µM | > 100 | > 100 µM | > 100 | > 100 µM | > 100 | > 100 µM | > 100 | > 100 µM | > 100 | > 100 µM
COc1cc2cc(Oc3ccc(NC(=O)Nc4cc(C(F)(F)F)cc(C(F)(F)F)c4)cc3)c(C)nc2cc1OCCN1CCOCC1 | 1.47 | 5.68 µM | 1.88 | 7.42 µM | 1.9 | 6.72 | 1.49 | 5.48 µM | 1.41 | 6.57 µM | 1.12 | 2.99 µM | 1.43 | 5.28 µM | 2.2 | 9.16 µM | 1.1 | 2.77 µM | 1.75 | 7.14 µM
O=C(CS(=O)(=O)c1nc2ccccc2nc1-c1ccccc1)Nc1ccc(F)cc1 | > 100 | > 100 µM | 98.9 | > 100 µM | 88 | > 100 | 33.9 | > 100 µM | 3.15 | 18.8 µM | > 100 | > 100 µM | 30.6 | > 100 µM | > 100 | > 100 µM | 39.9 | > 100 µM | 33.6 | > 100 µM
CSc1ccc(C2=C(c3ccccc3)C(=O)OC2)cc1 | 0.409 | 10.1 µM | 0.804 | > 100 µM | 0.0923 | 0.364 | 7.68 | > 100 µM | 0.508 | 2.85 µM | 1.87 | – | 0.188 | 0.568 µM | 1.96 | > 70 µM | 0.202 | 3.46 µM | 0.239 | > 100 µM
Cc1ccc(CNc2ccc(Br)cc2)cc1 | – | > 100 µM | – | > 100 µM | – | > 100 | – | > 100 µM | – | 78.4 µM | – | 76.5 µM | – | > 100 µM | – | > 100 µM | – | 66.1 µM | – | 93.4 µM
COC(=O)NC1C(C)OC(OC2C/C=C(/C)C3C=CC4C(OC5CC(OC6CCC(OC7CC(O)C(OC8CCC(O)C(C)O8)C(C)O7)C(C)O6)C(OC(C)=O)C(C)O5)C(C)CC(C)C4C3(C)/C(O)=C3/C(=O)OC4(CC(C=O)=CC(O)C4/C=C\2C)C3=O)CC1(C)[N+](=O)[O-] (configuration not stated) | 1.05 | 7.08 µM and 3.27 µM | 0.0728 | 3.45 µM and 0.509 µM | – | 1.06 | 0.27 | 3.32 µM and 0.891 µM | 0.0687 | 4.86 µM and 1.78 µM | 0.158 | 1.27 µM and 0.334 µM | 0.484 | 2.7 µM and 2.12 µM | 0.275 | 1.81 µM and 0.667 µM | 1.22 | 3.4 µM and 4.26 µM | 0.352 | 2.61 µM and 12.8 µM
CCCn1c2c(c3ccccc3c1=O)C(=O)c1ccccc1-2 | – | > 100 µM | – | > 100 µM | – | > 100 | – | > 100 µM | – | > 100 µM | – | > 100 µM | – | > 100 µM | – | > 79.6 µM | – | > 100 µM | – | > 100 µM
